Results reported in ChEMBL document CHEMBL1150545, “CP-71,362, an unusually potent inhibitor of rat and dog renin” (Bioorg Med Chem Lett, 1994).
*1 amine or outer side, *2 acyl side, *3 side chain or, on linkers, in order; H or OH if unused. Where a SMILES comes first, the peptide text is derived from it. [ ]: non-standard residue; d: D form. The star is where a group is joined. X1 = CC(C)C[C@H](C[C@H](O)[C@H](CC1CCCCC1)N[*:1])C(=O)[*:2]; Boc = CC(C)(C)OC(=O)*

Key:
Renin [1] = molecular target: T1, Renin (Rattus norvegicus, UniProt P08424); test: Compound was tested for its inhibitory activity against Rat plasma renin; format: cell-free
T1 sequence (P08424 whole entry): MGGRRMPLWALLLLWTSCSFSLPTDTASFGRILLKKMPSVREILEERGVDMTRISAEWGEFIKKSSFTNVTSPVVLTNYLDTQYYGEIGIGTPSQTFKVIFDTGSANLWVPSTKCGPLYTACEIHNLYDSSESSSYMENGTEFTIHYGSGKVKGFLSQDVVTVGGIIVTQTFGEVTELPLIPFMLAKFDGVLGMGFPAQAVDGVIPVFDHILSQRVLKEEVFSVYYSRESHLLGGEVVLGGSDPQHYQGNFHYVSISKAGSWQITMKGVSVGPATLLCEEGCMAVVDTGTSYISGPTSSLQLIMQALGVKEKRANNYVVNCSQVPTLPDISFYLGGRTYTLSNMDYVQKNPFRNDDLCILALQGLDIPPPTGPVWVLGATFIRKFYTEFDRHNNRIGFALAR

Renin (Canis familiaris) = test: Compound was tested for its inhibitory activity against dog plasma renin
Canis familiaris [2] = test: Decrease in mean arterial pressure in anesthetized, sodium depleted dogs, at 3.7+/0.4 ug/Kg/min infusion rate; format: functional, Canis lupus familiaris, Artery
Rattus norvegicus [3] = species on record: Rattus norvegicus; test: Infusion rate producing half of the maximal decrease in renin dependent blood pressure in rats; format: functional
Renin [4] = molecular target: T2, Renin (Homo sapiens, UniProt P00797); test: Compound was tested for its inhibitory activity against human plasma renin; format: cell-free
T2 sequence (P00797 whole entry): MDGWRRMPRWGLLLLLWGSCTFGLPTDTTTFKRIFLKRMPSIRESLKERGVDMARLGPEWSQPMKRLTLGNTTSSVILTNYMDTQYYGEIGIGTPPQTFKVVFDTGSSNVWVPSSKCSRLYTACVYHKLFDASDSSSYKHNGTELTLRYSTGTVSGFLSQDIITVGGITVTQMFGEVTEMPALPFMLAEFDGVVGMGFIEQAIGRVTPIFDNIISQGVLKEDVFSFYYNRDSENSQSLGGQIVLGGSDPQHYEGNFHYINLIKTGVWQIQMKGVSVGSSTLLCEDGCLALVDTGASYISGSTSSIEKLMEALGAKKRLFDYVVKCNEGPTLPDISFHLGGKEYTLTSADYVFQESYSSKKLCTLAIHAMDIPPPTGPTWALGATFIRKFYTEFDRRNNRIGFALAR

Canis familiaris [5] = species on record: Canis familiaris; test: Infusion rate producing half of the maximal decrease in renin dependent blood pressure in dogs; format: functional, Canis lupus familiaris
Rattus norvegicus [6] = species on record: Rattus norvegicus; test: Infusion rate producing a decrease in MAP of between 30 and 40 mmHg in the rat; format: functional

IC50 (Renin [1]): 3 nM
IC50 (Renin (Canis familiaris)): 0.03 nM
IC50 (Renin [4]): 20 nM
Structure (SMILES): CC(=O)O.CC(C)C[C@H](C[C@H](O)[C@H](CC1CCCCC1)NC(=O)[C@H](Cc1c[nH]cn1)NC(=O)[C@H](Cc1ccccc1)NC(=O)OC(C)(C)C)C(=O)N[C@@H](CCCCN)C(=O)N[C@@H](Cc1ccccc1)C(=O)O (Boc-FH[X1]KF-OH)
MAP (Canis familiaris [2]): 35 mmHg
Infusion rate (Rattus norvegicus [3]): 9.7 µg/min/kg
Infusion rate (Canis familiaris [5]): 1.1 µg/min/kg
Infusion rate (Rattus norvegicus [6]): 30 µg/min/kg
